What was measured:
melanoma PDOX [1] = assay: Confocal microscopy of S. typhimurium A1-R-GFP tumor targeting (fluorescent area); assay type: in vivo, Athymic nu/nu nude mice; details: drug combined with S. typhimurium A1-R
Experimental: GFP-expressing S. typhimurium A1-R bacteria (AntiCancer Inc.,) were grown overnight on LB medium (Fisher Sci., Hanover Park, Ill., USA) and then diluted 1:10 in LB medium. Bacteria were harvested at late-log phase, washed with PBS, and then diluted in PBS. S. typhimurium A1-R was injected intravenously. A total of 5×10^7 CFU S. typhimurium A1-R in 100 μl PBS was administered to each mouse.
(§1) PDOX mouse models were randomized into four groups of 10 mice each: untreated control (n=10); treated with S. typhimurium A1-R (5×10^7 CFU/100 μl, i.v., qw×2, n=10); treated with TEM (25 mg/kg, p.o., qd×14) combined with S. typhimurium A1-R (5×10^7 CFU/[…]., qw×2, n=10); treated with VEM (30 mg/kg, p.o., qd×14) combined with S. typhimurium A1-R (5×10^7CFU/100 μl, i.v., qw×2, n=10). Tumor length and width were measured twice a week. Tumor volume was calculated with the following formula: Tumor volume (mm3)=length (mm)×width (mm)×width (mm)×½. Data are presented as mean±SD. The tumor volume ratio is defined at the tumor volume at any given time point relative to the initial tumor volume.
The FV1000 confocal microscope (Olympus, Tokyo, Japan) was used for high-resolution imaging. Fluorescence images were obtained using the 20×/0.50 UPLAN FLN and 40×/1.3 oil Olympus UPLAN FLN objectives. The tumor fluorescent area was analyzed with UVP software (UVP, Upland, Calif.).

melanoma PDOX [2] = assay: Histological analysis (H&E) of treated PDOX tumors; assay type: in vivo, Athymic nu/nu nude mice; details: each drug combined with S. typhimurium A1-R; much more extensive than S. typhimurium A1-R
Experimental: as §1
Fresh tumor samples were fixed in 10% formalin and embedded in paraffin before sectioning and staining. Tissue sections (5 μm) were deparaffinized in xylene and rehydrated in an ethanol series. Hematoxylin and eosin (H&E) staining was performed according to standard protocols. Histological examination was performed with a BHS System Microscope (Olympus Corporation, Tokyo, Japan). Images were acquired with INFINITY ANALYZE software (Lumenera Corporation, Ottawa, Canada).

Cn1nnc2c(C(N)=O)ncn2c1=O [TEM, temozolamide]
S. typhimurium A1-R tumor targeting / accumulation (melanoma PDOX [1]; elevated accumulation leading to extensive tumor necrosis): promoted S. typhimurium A1-R tumor targeting
S. typhimurium A1-R-GFP fluorescent area compared to S. typhimurium A1-R alone (melanoma PDOX [1]; p<0.01): significantly increase
tumor necrosis (histology) (melanoma PDOX [2]): extensive necrosis

Reference: patent US20180236011A1, “METHODS TO ENHANCE TUMOR-TARGETING BY BACTERIA” (priority 2017, published 2018)
